Each structure is given as a SMILES string.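 These data come from cells grown in 96-well plates and exposed to compound for 48 hours at five concentrations. Definition used: TGI = concentration required for complete inhibition of growth.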

The test system of one test is MALME-3M melanoma. As to the kind of experiment: growth of human tumour cells (NCI), 48 h.
Consider `NC1CC(=O)c2cc(Cl)sc21` (stereo not given), for which the TGI is > 100 µM.
On the same count and under the same terms, with `O=C(O)C1C(C(=O)O)C2C(=O)C=CC1N2Cc1ccccc1` (stereo not given) the figure was 8.73 µM.

The test system of another test is CAKI-1 renal. The test is described as follows: growth of human tumour cells (NCI), 48 h.
Turning to `O=C(O)c1c[nH]c2c(Sc3ccccc3)nccc2c1=O`, the TGI is > 100 µM.
`CCOC(=O)c1cc(Sc2ccc(N)c(C(=O)OCC)c2)ccc1N`: the TGI was > 100 µM.
As for `NC1CC(=O)c2cc(Cl)sc21` (stereo not given), the TGI was > 100 µM.
`O=C(O)C1C(C(=O)O)C2C(=O)C=CC1N2Cc1ccccc1` (stereo not given) yielded a TGI of 14.5 µM.

The test system of another test is SK-MEL-28 melanoma. As to the kind of experiment: growth of human tumour cells (NCI), 48 h.
As to `O=C(O)c1c[nH]c2c(Sc3ccccc3)nccc2c1=O`, the TGI was > 100 µM.
The same measure, in the same setting: next, `CCOC(=O)c1cc(Sc2ccc(N)c(C(=O)OCC)c2)ccc1N`: > 100 µM.
Same read-out and setting: with `NC1CC(=O)c2cc(Cl)sc21` (stereo not given) the figure was > 100 µM; with `O=C(O)C1C(C(=O)O)C2C(=O)C=CC1N2Cc1ccccc1` (stereo not given), 15.5 µM.

The subject of the next test is NCI/ADR-RES ovarian. The test is described as follows: growth of human tumour cells (NCI), 48 h.
As to `O=C(O)c1c[nH]c2c(Sc3ccccc3)nccc2c1=O`, the TGI was > 100 µM.
Same read-out and setting: next, `CCOC(=O)c1cc(Sc2ccc(N)c(C(=O)OCC)c2)ccc1N`: > 100 µM; `NC1CC(=O)c2cc(Cl)sc21` (stereo not given): > 100 µM; `O=C(O)C1C(C(=O)O)C2C(=O)C=CC1N2Cc1ccccc1` (stereo not given): 7.58 µM.

The subject of the next test is SN12C renal. The test is described as follows: growth of human tumour cells (NCI), 48 h.
Turning to `O=C(O)c1c[nH]c2c(Sc3ccccc3)nccc2c1=O`, the TGI is > 100 µM.
Still for that read-out and setting: with `CCOC(=O)c1cc(Sc2ccc(N)c(C(=O)OCC)c2)ccc1N` the figure was 40.3 µM.
On the same count and under the same terms, with `NC1CC(=O)c2cc(Cl)sc21` (stereo not given) the figure was > 100 µM.
The same measure, in the same setting: with `O=C(O)C1C(C(=O)O)C2C(=O)C=CC1N2Cc1ccccc1` (stereo not given) the figure was 5.47 µM.

For the next test, the system named is HCT-116 colon. As to the kind of experiment: growth of human tumour cells (NCI), 48 h.
Regarding `O=C(O)c1c[nH]c2c(Sc3ccccc3)nccc2c1=O`, the TGI was > 100 µM.
On the same count and under the same terms, next, `CCOC(=O)c1cc(Sc2ccc(N)c(C(=O)OCC)c2)ccc1N`: > 100 µM; `NC1CC(=O)c2cc(Cl)sc21` (stereo not given): > 100 µM.
Regarding `O=C(O)C1C(C(=O)O)C2C(=O)C=CC1N2Cc1ccccc1` (stereo not given), the TGI was 15.2 µM.

In another test the test system is SR leukemia. The test is described as follows: growth of human tumour cells (NCI), 48 h.
`CCOC(=O)c1cc(Sc2ccc(N)c(C(=O)OCC)c2)ccc1N`: the TGI is > 100 µM.

Another test relates to COLO 205 colon. The test is described as follows: growth of human tumour cells (NCI), 48 h.
In the case of `O=C(O)c1c[nH]c2c(Sc3ccccc3)nccc2c1=O`, the TGI was > 100 µM.
Consider `CCOC(=O)c1cc(Sc2ccc(N)c(C(=O)OCC)c2)ccc1N`, for which the TGI was > 100 µM.
Still for that read-out and setting: with `NC1CC(=O)c2cc(Cl)sc21` (stereo not given) the figure was > 100 µM; with `O=C(O)C1C(C(=O)O)C2C(=O)C=CC1N2Cc1ccccc1` (stereo not given), 22.1 µM.

The test system of another test is SK-OV-3 ovarian. The test is described as follows: growth of human tumour cells (NCI), 48 h.
Regarding `O=C(O)c1c[nH]c2c(Sc3ccccc3)nccc2c1=O`, the TGI is > 100 µM.
Turning to `CCOC(=O)c1cc(Sc2ccc(N)c(C(=O)OCC)c2)ccc1N`, the TGI was > 100 µM.
For the compound `NC1CC(=O)c2cc(Cl)sc21` (stereo not given), the TGI is > 100 µM.
Consider `O=C(O)C1C(C(=O)O)C2C(=O)C=CC1N2Cc1ccccc1` (stereo not given), for which the TGI came out at 17 µM.

In the next test the test system is T-47D breast. As to the kind of experiment: growth of human tumour cells (NCI), 48 h.
As to `O=C(O)c1c[nH]c2c(Sc3ccccc3)nccc2c1=O`, the TGI was > 100 µM.
Same read-out and setting: with `CCOC(=O)c1cc(Sc2ccc(N)c(C(=O)OCC)c2)ccc1N` the figure was > 100 µM.
`NC1CC(=O)c2cc(Cl)sc21` (stereo not given): the TGI is > 100 µM.
Same read-out and setting: with `O=C(O)C1C(C(=O)O)C2C(=O)C=CC1N2Cc1ccccc1` (stereo not given) the figure was 15.2 µM.

A further test deals with OVCAR-8 ovarian. As to the kind of experiment: growth of human tumour cells (NCI), 48 h.
Consider `O=C(O)c1c[nH]c2c(Sc3ccccc3)nccc2c1=O`, for which the TGI was > 100 µM.
As to `CCOC(=O)c1cc(Sc2ccc(N)c(C(=O)OCC)c2)ccc1N`, the TGI is > 100 µM.
Still for that read-out and setting: next, `NC1CC(=O)c2cc(Cl)sc21` (stereo not given): > 100 µM; `O=C(O)C1C(C(=O)O)C2C(=O)C=CC1N2Cc1ccccc1` (stereo not given): > 100 µM.

For the next test, the system named is NCI-H522 lung. The test is described as follows: growth of human tumour cells (NCI), 48 h.
With `O=C(O)c1c[nH]c2c(Sc3ccccc3)nccc2c1=O`, the TGI is > 100 µM.
On the same count and under the same terms, with `CCOC(=O)c1cc(Sc2ccc(N)c(C(=O)OCC)c2)ccc1N` the figure was > 100 µM.
Turning to `NC1CC(=O)c2cc(Cl)sc21` (stereo not given), the TGI is > 100 µM.
The same measure, in the same setting: next, `O=C(O)C1C(C(=O)O)C2C(=O)C=CC1N2Cc1ccccc1` (stereo not given): 3.78 µM.

In the next test the test system is SF-295 CNS. As to the kind of experiment: growth of human tumour cells (NCI), 48 h.
On to `O=C(O)c1c[nH]c2c(Sc3ccccc3)nccc2c1=O`, for which the TGI is > 100 µM.
The same measure, in the same setting: next, `CCOC(=O)c1cc(Sc2ccc(N)c(C(=O)OCC)c2)ccc1N`: > 100 µM; `NC1CC(=O)c2cc(Cl)sc21` (stereo not given): > 100 µM; `O=C(O)C1C(C(=O)O)C2C(=O)C=CC1N2Cc1ccccc1` (stereo not given): 23.4 µM.

In a further test the test system is M14 melanoma. The test is described as follows: growth of human tumour cells (NCI), 48 h.
For `O=C(O)c1c[nH]c2c(Sc3ccccc3)nccc2c1=O`, the TGI was > 100 µM.
The same measure, in the same setting: with `CCOC(=O)c1cc(Sc2ccc(N)c(C(=O)OCC)c2)ccc1N` the figure was > 100 µM; with `NC1CC(=O)c2cc(Cl)sc21` (stereo not given), > 100 µM; with `O=C(O)C1C(C(=O)O)C2C(=O)C=CC1N2Cc1ccccc1` (stereo not given), 5.99 µM.

The next test relates to NCI-H226 lung. As to the kind of experiment: growth of human tumour cells (NCI), 48 h.
As for `O=C(O)c1c[nH]c2c(Sc3ccccc3)nccc2c1=O`, the TGI is > 100 µM.
Still for that read-out and setting: with `CCOC(=O)c1cc(Sc2ccc(N)c(C(=O)OCC)c2)ccc1N` the figure was 44.7 µM; with `NC1CC(=O)c2cc(Cl)sc21` (stereo not given), > 100 µM; with `O=C(O)C1C(C(=O)O)C2C(=O)C=CC1N2Cc1ccccc1` (stereo not given), 35.8 µM.
